# According to patent US6030997A, “Acid labile prodrugs” (priority 1998, dated 2000):
# Legend:
# kidney = conditions: rat, in vivo
# Experimental: 3.1 The potential intravenous toxicity of the test article ProGenta (in a dose equimolar to 60 mg/kg of Gentamicin, Example 1) following once daily repeated intravenous administrations during 7 days, was studied in a group of seven male and seven female Fisher 344 rats, in comparison to an identically treated and equally sized group treated with the control article Gentamicin (60 mg/kg), and an untreated control group comprising six male and six female rats. All animals received 10 mg/liter of sodium bicarbonate in drinking water. All animals were allowed an additional 3-day recovery period. Final assessment of treatment effects was based on monitoring clinical signs, determinations of body weight, serum creatinine levels and urinary protein content. In addition, all animals were subjected to necropsy at termination of the study.
# BALB/c mice = assay: Toxicity of daily intravenous injections in BALB/c mice (proteinuria by Dipstick, mortality, gross pathology); assay type: in vivo, mouse (BALB/c); conditions: day 3, Gentamicin 75 mg/kg i.v. daily
# Fisher 344 rats = assay: 7-day once daily repeated intravenous toxicity in Fisher 344 rats: clinical signs, mortality, body weight, necropsy; assay type: in vivo, rat (Fisher 344); conditions: i.v. once daily 7 days, ProGenta equimolar to 60 mg/kg Gentamicin or Gentamicin 60 mg/kg; particularly females; especially striking Day 10
# Experimental: All animals received 10 mg/liter of sodium bicarbonate in drinking water. All animals were allowed an additional 3-day recovery period. Final assessment of treatment effects was based on monitoring clinical signs, determinations of body weight, serum creatinine levels and urinary protein content. In addition, all animals were subjected to necropsy at termination of the study.
# mice = conditions: i.v.; cited from earlier work
substance,measurement,setting,value
Gentamicin,proteinuria,kidney,reached a peak value
same,urinary protein content,kidney,markedly increased
same,mortality,BALB/c mice,the two mice in the Gentamicin group died several hours after the injection
same,weight gain,Fisher 344 rats,a relative reduction in normally expected weight gain
same,LD50,mice,75 mg/kg
